Results on six molecules are retold here after patent US4078083A, “Novel prostanoic acids” (Hoechst Aktiengesellschaft, priority 1973, dated 1978).

≈ marks a conversion by molar mass, not a printed value.

The test system of assay [1] is blood pressure (cat). In words: Test for the effect on the blood circulation (hypotensive properties, Kannegiesser and Lee). Format: in vivo. As for the experimental part:
Test for the effect on the blood circulation
The hypotensive properties were examined in accordance with the methods described by Kannegiesser and Lee, Nature 229, 498 (1971).
Test animals were cats of both sexes having a weight of 2.0 to 3.0 kg.
The animals were anesthesized with pentobarbital in an amount of 1.7 to 2.8 mg/ml in 0.9 % NaCl-solution as continuous infusion with 5 mg/kg/hour and pretreated with pentolinium (Ansolysen, May & Baker) with 10 mg/animal by the intraperitoneal route. The test substances were administered through the Vena jugularis. The blood pressure was measured in the A. carotis ext. directly and recorded by means of a Statham pressure sensor on a multi-channel recorder.
The maximum change of the systolic and diastolic blood pressure was measured in mm Hg.
All test preparations were present as stock solutions in absolute alcohol and were diluted to the end concentration immediately before the test beginning in phosphate buffer (pH = 7.4).

In assay [2] the test system is unstriped musculature (isolated rat stomach). In words: Effect on the unstriped musculature (isolated rat stomach according to Vane). Format: cell-based, rat (Wistar). The note with it: for EC50: 37° C, activity relative to contraction after 600 ng/ml PGA2, Table 1, read-out: Action on the unstriped musculature (isolated rat stomach) ED50. As for the experimental part:
Effect on the unstriped musculature (isolated rat stomach according to Vane, Br. J. Pharmac. Chemother., 12 344 (1957)).
The test was carried out on Wistar rats of both sexes having a weight of 200 to 220 g. The animals were killed by a blow onto the neck, the stomach was rapidly taken out and put into a Petri dish containing a pre-heated cancer solution. The fundus which is easily to be distinguished from the pyloric part because of its grey color, was separated and opened longitudinally by a longitudinal cut. Transversal cuts in counter-direction to each other led to a stripe which could be hung into the organ bath. The organ bath contained the usual cancer solution which was maintained at a temperature of 37° C and which was risen in bubbles with a mixture of 95 % O2 and 5 % CO2. A writing lever charged with 1 g served to register on a kymograph the contractions produced by adding the substance to be examined to the organ bath. The test criterion was the contraction occurring after the addition of the substance to be examined. The degree of activity was determined by comparing the contraction occurring after 600 ng/ml PGA2. The values expressed in % with regard to the comparison preparation were used to draw a dose-activity-curve which allowed to determine the medium activity dose.
All substances were present as stock-solutions in absolute alcohol and were diluted to their final concentration with phosphate buffer (pH = 7.4).

Assay [3] concerns bronchospasm by acetylquoline (Guinea pig). As to the kind of experiment: Bronchospasmolytic activity according to Konzett-Rossler, acetylquoline bronchospasm. Format: in vivo. The note with it: Cavia porcellus, iv, irritant acetylquoline, read-out: Bronchospasmolysis ID50, acetylquoline. As for the experimental part:
(§1) test of intravenously administered preparations for bronchospasmolytic activity according to Konzett-Rossler.
(§2) Except for irrelevant modifications, the test arrangement used largely corresponded to the description given by H. Konzett and R. Rossler, Arch. exp. Path. Pharmakol. 195, 71 (1940)). Test animals were male white Guinea pigs having a weight of 400 to 500 g. They were anesthesized with hexobarbital and urethane. All preparations to be administered were diluted with phosphate buffer (pH = 7.4) and administered in a volume of 0.1 ml.
(§3) Physiological or pharmacological effects were registered by measuring the air volume in the lung when the maximum blowing pressure was kept constant and a constant volume was maintained by respiration above atmospheric pressure. Capacity modifications in the respiratory tract show themselves in an increase or decrease of the air volume absorbed by the lung under the given constant blowing pressure. To produce a heavy bronchospasm acetylquoline or histamine were injected by the intravenous route. The dosage unit of the irritant was chosen such that an about 70 to 80 % decrease of the absorption capacity of the lung was obtained. The substance to be examined was administered by the intravenous route in the V. jugularis. 30 seconds thereafter the already evaluated dosage unit of the irritant was injected once more. The medium inhibition dose was red off from the dose activity curve drawn either graphically or by means of regression analysis.

In assay [4] the test system is bronchospasm by histamine (Guinea pig). As to the kind of experiment: Bronchospasmolytic activity according to Konzett-Rossler, histamine bronchospasm. The class given is in vivo. The note with it: for ED50: Cavia porcellus, iv, Guinea pig, irritant histamine, read-out: Bronchospasmolysis ID50, Histamine. The method, then: as §1, §2, §3

With `CCCCCC(O)/C=C/C1CCC(=O)C1CCCCCCC(=O)O` (mixture of isomers) [Example 4, rac. 15-α-Hydroxy-9-oxo-13-trans-prostenoic Acid], in assay [1] (at 0.5 μg/kg i.v. (cat)), the “Blood pressure (modifications in mm Hg), first value (systolic)” value (from here on “Blood pressure … (systolic)”) was -22 mm Hg and the “Blood pressure (modifications in mm Hg), second value (diastolic)” value (shortened to “Blood pressure … (diastolic)”) is on record as -27 mm Hg. Further, in assay [2] (isolated rat stomach), the EC50 amounted to 0.1 µg/mL. The ED50 in assay [3] worked out at 0.1 µg/kg. The ED50 in assay [4] came out at 0.1 µg/kg.

Turning to `CCCCCC(O)/C=C/C1CCC(=O)C1CCCCCC(C)C(=O)O` (mixture of isomers) [Example 8, rac. 15-α-Hydroxy-2-methyl-9-oxo-13-trans-prostenoic Acid], in assay [1] (after 5 μ/kg i.v. (cat)), the “Blood pressure (modifications in mm Hg), one value printed (systolic and diastolic not separated)” value came out at 0 mm Hg. The EC50 in assay [2] (isolated rat stomach) amounted to 1.3 µg/mL. Moreover, in assay [3], the ED50 is above 10 µg/kg.

On to `CCCCCC(O)/C=C/C1CCC(=O)C1CCC(C)CCCC(=O)O` (mixture of isomers) [Example 5, rac. 15-α-Hydroxy-5-methyl-9-oxo-13-trans-prostenoic Acid], for which, in assay [1] (after 5 μ/kg i.v. (cat)), the “Blood pressure … (systolic)” value is recorded as -20 mm Hg and the “Blood pressure … (diastolic)” value is given as -30 mm Hg. For the same molecule, the blood-pressure lowering activity entry in assay [1] (in words, compared with 15-α-hydroxy-9-oxo-13-trans-prostenoic acid) was “reduced as compared with 15-α-hydroxy-9-oxo-13-trans-prostenoic acid”. In addition, the spasmogen activity entry in assay [2] (in words) was “good spasmogen activity”. Also, the EC50 in assay [2] (isolated rat stomach) is 0.2 µg/mL. In addition, in assay [3], the ED50 worked out at 0.4 µg/kg. Also, in assay [4] (in words, irritant not specified), the bronchodilating activity result is recorded as “good bronchodilating activity”.

On to `CCCCCC(O)/C=C/C1CCC(=O)C1CCCCC(C)CC(=O)O` (mixture of isomers) [Example 7, rac. 15-α-Hydroxy-3-methyl-9-oxo-13-trans-prostenoic Acid], for which, in assay [1] (after 5 μ/kg i.v. (cat)), the “Blood pressure … (systolic)” value is given as -10 mm Hg and the “Blood pressure … (diastolic)” value is listed as -20 mm Hg. In assay [2] (isolated rat stomach), the EC50 was found to be 1 µg/mL. Besides, the ED50 in assay [3] was 1 µg/kg. The ED50 in assay [4] amounted to 4 µg/kg.

For `CCCCCC(O)C=C[C@H]1CCC(O)[C@@H]1CC=CCOCC(=O)O` (mixture of isomers) [Example 29 A, rac. 9,15-dihydroxy-3-oxa-5,13-trans-prostadienic acid], the “ED50 in the isolated rat stomach” value in assay [2] (isolated rat stomach) was determined as 3.1 µg/mL (≈ 9.11 µM).

Regarding `CCCCCC(O)/C=C/C1CCC(=O)C1CCCC(C)CCC(=O)O` (mixture of isomers) [Example 6, rac. 15-α-Hydroxy-4-methyl-9-oxo-13-trans-prostenoic Acid], in assay [1] (after 5 μ/kg i.v. (cat)), the “Blood pressure … (systolic)” value is listed as -45 mm Hg and the “Blood pressure … (diastolic)” value was -50 mm Hg. For the same molecule, in assay [2] (isolated rat stomach), the EC50 came to 0.5 µg/mL. Further, in assay [3], the ED50 was 0.5 µg/kg. The ED50 in assay [4] is 0.9 µg/kg.
